Reference: ChEMBL document CHEMBL4390667, “Novel tacrine-tryptophan hybrids: Multi-target directed ligands as potential treatment for Alzheimer's disease” (Eur J Med Chem, 2019)

Tests used:
[1] = pampa, pH 7.4, 100 µM
Description: Effective permeability of the compound in PBS buffer at pH 7.4 at 100 uM after 3 to 6 hrs by PAMPA

CHO-K1 = experiment: cells; settings: Cricetulus griseus, CHO-K1, 24 h
Description: Cytotoxicity against CHOK1 cells assessed as reduction in cell viability incubated for 24 hrs by MTT assay

HepG2 = experiment: cells; settings: Homo sapiens, HepG2, 24 h
Description: Cytotoxicity against human HepG2 cells assessed as reduction in cell viability incubated for 24 hrs by MTT assay

Acetylcholinesterase = Acetylcholinesterase (Homo sapiens, UniProt P22303)
Description: Inhibition of human recombinant AChE using acetylthiocholine iodide as substrate preincubated for 5 mins followed by substrate addition and measured over 2 mins by UV-Vis spectrophotometric analysis based Ellman's method

Nitric oxide synthase 1 = Nitric oxide synthase 1 (Rattus norvegicus, UniProt P29476)
Sequence of Nitric oxide synthase 1 (P29476 whole entry, looked up): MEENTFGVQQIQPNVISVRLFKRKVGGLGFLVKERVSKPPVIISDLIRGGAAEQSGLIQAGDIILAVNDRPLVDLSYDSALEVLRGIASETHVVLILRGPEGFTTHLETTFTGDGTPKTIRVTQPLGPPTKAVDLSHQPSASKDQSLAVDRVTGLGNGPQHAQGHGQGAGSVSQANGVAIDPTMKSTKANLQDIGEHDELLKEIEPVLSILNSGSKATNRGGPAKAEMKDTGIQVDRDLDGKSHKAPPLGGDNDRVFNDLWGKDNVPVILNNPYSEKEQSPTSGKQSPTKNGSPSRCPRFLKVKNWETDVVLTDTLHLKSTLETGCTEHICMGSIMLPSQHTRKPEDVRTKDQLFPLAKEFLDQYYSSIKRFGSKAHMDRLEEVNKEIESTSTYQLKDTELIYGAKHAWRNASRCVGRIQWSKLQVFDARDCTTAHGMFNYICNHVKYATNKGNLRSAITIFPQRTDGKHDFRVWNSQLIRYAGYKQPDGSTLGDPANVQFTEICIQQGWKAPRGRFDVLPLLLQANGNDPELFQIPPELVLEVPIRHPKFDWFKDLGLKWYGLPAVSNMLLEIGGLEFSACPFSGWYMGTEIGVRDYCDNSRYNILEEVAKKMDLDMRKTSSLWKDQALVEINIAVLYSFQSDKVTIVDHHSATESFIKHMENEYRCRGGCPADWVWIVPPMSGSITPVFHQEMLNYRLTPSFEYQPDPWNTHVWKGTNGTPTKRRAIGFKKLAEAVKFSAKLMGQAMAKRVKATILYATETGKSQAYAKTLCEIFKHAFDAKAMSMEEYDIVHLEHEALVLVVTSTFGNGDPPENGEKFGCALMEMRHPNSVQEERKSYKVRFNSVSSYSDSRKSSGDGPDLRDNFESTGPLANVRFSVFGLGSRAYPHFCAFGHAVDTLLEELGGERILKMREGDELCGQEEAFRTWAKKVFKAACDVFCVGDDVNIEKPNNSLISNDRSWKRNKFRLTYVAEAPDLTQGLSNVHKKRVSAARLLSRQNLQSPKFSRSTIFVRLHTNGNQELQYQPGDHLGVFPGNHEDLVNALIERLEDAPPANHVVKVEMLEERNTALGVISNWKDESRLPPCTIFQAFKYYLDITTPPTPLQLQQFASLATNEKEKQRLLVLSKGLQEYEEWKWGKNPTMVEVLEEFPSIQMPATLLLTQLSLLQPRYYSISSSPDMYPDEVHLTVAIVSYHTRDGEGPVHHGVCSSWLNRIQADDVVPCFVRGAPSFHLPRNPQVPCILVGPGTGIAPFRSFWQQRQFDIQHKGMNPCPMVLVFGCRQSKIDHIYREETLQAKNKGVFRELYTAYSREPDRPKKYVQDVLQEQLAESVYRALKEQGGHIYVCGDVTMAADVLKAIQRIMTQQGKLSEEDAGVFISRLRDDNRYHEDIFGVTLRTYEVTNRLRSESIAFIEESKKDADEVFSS
Description: Inhibition of nNOS in Wistar rat cortical homogenates incubated for 30 mins

Cholinesterase = Cholinesterase (Homo sapiens, UniProt P06276)
Sequence of Cholinesterase (P06276 whole entry): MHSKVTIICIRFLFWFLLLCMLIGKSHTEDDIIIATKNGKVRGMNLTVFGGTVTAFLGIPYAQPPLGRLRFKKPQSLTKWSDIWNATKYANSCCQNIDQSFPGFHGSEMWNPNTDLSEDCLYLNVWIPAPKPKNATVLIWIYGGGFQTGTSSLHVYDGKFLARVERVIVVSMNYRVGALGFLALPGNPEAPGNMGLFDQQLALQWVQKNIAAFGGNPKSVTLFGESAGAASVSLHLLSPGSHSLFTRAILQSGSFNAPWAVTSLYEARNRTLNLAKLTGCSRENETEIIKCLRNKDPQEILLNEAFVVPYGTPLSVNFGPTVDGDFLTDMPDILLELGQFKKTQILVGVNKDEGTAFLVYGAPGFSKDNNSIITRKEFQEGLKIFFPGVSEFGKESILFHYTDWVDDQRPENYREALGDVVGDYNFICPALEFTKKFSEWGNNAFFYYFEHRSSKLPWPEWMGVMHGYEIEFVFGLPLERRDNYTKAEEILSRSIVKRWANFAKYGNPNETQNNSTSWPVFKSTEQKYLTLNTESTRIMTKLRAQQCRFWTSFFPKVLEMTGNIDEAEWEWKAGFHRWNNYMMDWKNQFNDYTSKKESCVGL
Description: Inhibition of human recombinant BChE using butyrylthiocholine iodide as substrate preincubated for 5 mins followed by substrate addition and measured over 2 mins by UV-Vis spectrophotometric analysis based Ellman's method

Sequence of Acetylcholinesterase (P22303 whole entry): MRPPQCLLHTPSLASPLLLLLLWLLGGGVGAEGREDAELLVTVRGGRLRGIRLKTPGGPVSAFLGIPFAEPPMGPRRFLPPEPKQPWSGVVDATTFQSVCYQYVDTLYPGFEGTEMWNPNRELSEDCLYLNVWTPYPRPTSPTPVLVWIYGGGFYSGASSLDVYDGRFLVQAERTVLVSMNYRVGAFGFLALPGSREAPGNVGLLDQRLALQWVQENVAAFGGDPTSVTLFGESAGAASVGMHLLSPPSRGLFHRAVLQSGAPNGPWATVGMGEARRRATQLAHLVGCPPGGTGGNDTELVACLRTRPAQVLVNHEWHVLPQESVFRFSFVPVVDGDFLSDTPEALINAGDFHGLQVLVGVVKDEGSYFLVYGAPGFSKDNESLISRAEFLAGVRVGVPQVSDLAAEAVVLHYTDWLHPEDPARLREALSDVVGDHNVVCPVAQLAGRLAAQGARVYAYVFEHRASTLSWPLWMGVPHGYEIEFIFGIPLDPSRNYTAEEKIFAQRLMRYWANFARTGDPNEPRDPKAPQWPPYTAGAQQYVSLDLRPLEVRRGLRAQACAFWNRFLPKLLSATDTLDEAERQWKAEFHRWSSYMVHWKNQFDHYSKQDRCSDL

| SMILES | permeability [1] | IC50 (CHO-K1) [µM] | IC50 (HepG2) [µM] | IC50 (Acetylcholinesterase) [nM] | IC50 (Nitric oxide synthase 1) [µM] | IC50 (Cholinesterase) [µM] |
| --- | --- | --- | --- | --- | --- | --- |
| COc1ccc2nc3c(c(N)c2c1)CCCC3 | Permeable | 63 | 120 | – | – | – |
| COc1ccc2nc3c(c(NCCCCCNC(=O)[C@@H](N)Cc4c[nH]c5ccccc45)c2c1)CCCC3.Cl.Cl | Impermeable | 46 | – | 620 | 26 | 0.19 |
| O=C(CCCCCCNc1c2c(nc3cccc(Cl)c13)CCCC2)NCCc1c[nH]c2ccccc12 | – | – | – | 0.008 | – | 0.0078 |
| N[C@@H](Cc1c[nH]c2ccccc12)C(=O)NCCCCCCCCNc1c2c(nc3ccccc13)CCCC2 | – | 47 | 9.3 | 76 | 37 | 0.064 |
| Cl.Cl.N[C@@H](Cc1c[nH]c2ccccc12)C(=O)NCCCCCCNc1c2c(nc3ccccc13)CCCC2 | Impermeable | 90 | 26 | 120 | 33 | 0.0039 |
| c1ccc2c(NCCCCCCCNc3c4c(nc5ccccc35)CCCC4)c3c(nc2c1)CCCC3 | – | – | – | – | 2.9 | – |
| Cl.Cl.N[C@@H](Cc1c[nH]c2ccccc12)C(=O)NCCCCCCCCNc1c2c(nc3cc(Cl)ccc13)CCCC2 | Permeable | 65 | – | 50 | 43 | 0.14 |
| Cl.Cl.N[C@@H](Cc1c[nH]c2ccccc12)C(=O)NCCCCCCCNc1c2c(nc3ccccc13)CCCC2 | Impermeable | 248 | – | 120 | 32 | 0.025 |
| COc1ccc2nc3c(c(NCCCCCCCNC(=O)[C@@H](N)Cc4c[nH]c5ccccc45)c2c1)CCCC3 | – | 14 | 5.6 | 980 | 26 | 0.078 |
| Cl.Cl.NC(Cc1c[nH]c2ccccc12)C(=O)NCCCCCCNc1c2c(nc3cc(Cl)ccc13)CCCC2 (racemic) | Permeable | 21 | 5.1 | 7.4 | 33 | 0.013 |
| Cl.Cl.N[C@@H](Cc1c[nH]c2ccccc12)C(=O)NCCCCNc1c2c(nc3ccccc13)CCCC2 | Permeable | 34 | – | 1300 | 18 | 0.123 |
| CNC(=N)NCCC[C@H](N)C(=O)OC | – | – | – | – | 4.1 | – |
| Cl.Cl.N[C@@H](Cc1c[nH]c2ccccc12)C(=O)NCCCCCCCNc1c2c(nc3cc(Cl)ccc13)CCCC2 | Permeable | 24 | 6 | 19 | 27 | 0.052 |
| Cl.Cl.N[C@H](Cc1c[nH]c2ccccc12)C(=O)NCCCCCCNc1c2c(nc3cc(Cl)ccc13)CCCC2 | Permeable | 15 | 4.2 | 6.9 | 26 | 0.14 |
| N[C@@H](Cc1c[nH]c2ccccc12)C(=O)NCCNc1c2c(nc3cc(Cl)ccc13)CCCC2 | – | 26 | – | 160 | 39 | 0.34 |
